Reference: patent US20140213575A1, “6H-Thieno[3,2-f][1,2,4]triazolo[4,3-a][1,4]diazepines” (BAYER INTELLECTUAL PROPERTY GMBH, priority 2011, published 2014)
“Also recorded” adds a separate entry of the source.

Columns and labels:
MOLM-13 cells [1] = assay: Cellular proliferation assay (alamarBlue) MOLM-13; type: cell-based; conditions: Homo sapiens, 96 hours, read-out: Leukaemia MOLM-13 IC50
Description: (§1) In accordance with the invention, the ability of the substances to inhibit the proliferation of various cell lines was determined. Cell viability was determined by means of the alamarBlue® reagent (Invitrogen). […] After incubation overnight at 37° C., the fluorescence values were determined (CI values). […] Then the fluorescence values were determined (CO values).
(§2) The substances were investigated in the cell lines in Table 1, which for example represent the stated indications: […]

VCaP cells = assay: Cellular proliferation assay (alamarBlue) VCaP; type: cell-based; conditions: Homo sapiens, 168 hours, read-out: Prostate VCaP IC50
Description: as §1, §2

LNCaP cells = assay: Cellular proliferation assay (alamarBlue) LNCaP; type: cell-based; conditions: Homo sapiens, 168 hours, read-out: Prostate LNCaP IC50
Description: as §1, §2

MCF-7 cells = assay: Cellular proliferation assay (alamarBlue) MCF-7; type: cell-based; conditions: Homo sapiens, MCF7, 96 hours, read-out: Breast MCF-7 IC50
Description: as §1, §2

MDA-MB-231 cells = assay: Cellular proliferation assay (alamarBlue) MDA-MB-231; type: cell-based; conditions: Homo sapiens, 96 hours, read-out: Breast MDA-MB-231 IC50
Description: as §1, §2

HeLa-MaTu cells = assay: Cellular proliferation assay (alamarBlue) HeLa-MaTu; type: cell-based; conditions: 96 hours, read-out: Cervix HeLa-MaTu IC50
Description: as §1, §2

B16F10 cells = assay: Cellular proliferation assay (alamarBlue) B16F10; type: cell-based; conditions: Mus musculus, B16-F10, 96 hours, read-out: Melanoma B16F10 IC50
Description: as §1, §2

MOLP-8 cells = assay: Cellular proliferation assay (alamarBlue) MOLP-8; type: cell-based; conditions: Homo sapiens, 120 hours, read-out: Multiple myeloma MOLP-8 IC50
Description: as §1, §2

plasma proteins = assay: Plasma protein binding by equilibrium dialysis; type: in vitro ADME, mouse
Description: The binding of test substances to plasma proteins is determined by equilibrium dialysis by means of the Ht-dialysis apparatus (96-well) made of Teflon and a semipermeable membrane (regenerated cellulose, MWCO 12-14K). This separates 150 μl of each of a plasma side and a buffer side (50 mM phosphate buffer). The test substance is added in 2 concentrations (usually 3 and 0.3 μM) to the plasma side and binds to plasma proteins. The unbound fraction of the test substance passes through the membrane and is distributed on either side until equilibrium is established (after approx. 6-8 h at 37° C.). The substance concentration on the buffer side and the plasma side is determined by LC-MS analysis. For this, both sides are brought by dilution with buffer or plasma to the same matrix (10% plasma) and then precipitated with methanol. The free (unbound) fraction (fu) is calculated from the quotient of the buffer and plasma concentration. Stability tests and recovery tests are run concurrently as controls. In addition, the substance in buffer is dialysed against buffer, to check the nonspecific binding to apparatus and membrane and establishment of equilibrium. Because during incubation the osmotic pressure of the plasma proteins leads to dilution of the plasma (volume shift), this possible error is determined by weighing blank plasma samples and is included in the calculation of fu. Establishment of equilibrium and plasma stability should have a value not lower than 80% and the recovery should be at least 30%. A free fraction of <1% is regarded as high, between 1 and 10% as moderate and >10% as low plasma protein binding.

[2] = Plasma concentrations from in-vivo tests and PK parameters; conditions: mouse; for Plasma concentration: 60 mg/kg p.o.
Description: After thawing and shaking, the samples are centrifuged for 20 minutes at 4° C. and approx. 2000×g. An aliquot of the supernatant (approx. 25 μL) is measured by LCMS analysis. If high plasma or tissue levels are expected (>ULOQ, as a rule 5 μM) the precipitated samples are additionally diluted 1:100 with ACN/H2O (80/20, v/v)+internal standard and corresponding aliquots are measured by LCMS. For this, the test substance is added in 5-9 concentrations, corresponding to the determination range of the analytical method, to a control matrix (calibration samples), e.g. 0, 1, 10, 100, 1000, 5000 nM. For this, a portion of solid is weighed and is dissolved in DMSO (as a rule 1 mM stock solution). This stock solution is further diluted 1:10 with DMSO ([…]). Then 1:5 (v/v) ACN+internal standard (soln. A) is added to the calibration samples and processed further as with the plasma samples. The calibration series in solvent takes place similarly to the plasma calibration described. The test substance is in this case prepared in ACN/H2O (50/50, v/v) and then 1:5 (v/v) ACN+internal standard is added to the samples. This series serves for calibration of the diluted samples. The following PK parameters are calculated from these concentration-time profiles obtained: […]
AUC(0-tlast),norm multiplied by the free fraction (fu) of the species investigated.

[3] = In-vivo tolerability in the mouse; design: species or system female NMRI nude mice; conditions: for Drug-induced deaths (day): 3 animals per group
Description: The substances were formulated in NMP/PEG300 (1/9 V/V). They were administered orally, in an amount of 10 ml/kg, once or twice daily for a period of 5 to 7 days to female NMRI nude mice (6-8 weeks old; 3 animals per group). Body weight and mortality of the mice were monitored daily up to the end of the study. Toxicity was defined as follows: ≧10% substance-induced deaths or ≧20% weight loss.

MOLM-13 cells [4] = assay: MOLM-13 acute monocytic leukaemia tumour model; conditions: 70 mg/kg oral daily; significance P<0.05
Description: NMRI nude mice were inoculated subcutaneously in the right flank on day 0 with 2×10^6 MOLM-13 cells in 0.1 ml Matrigel. […] Practical example 1 and practical example 2 were dissolved in 40% PEG400, 5% ethanol, 25% Solutol. The substances were administered orally, daily for […] (day 3 to day 14). […] Practical examples 1 and 2 were applied at a daily dose of 200 (highest dose used), 120 or 70 mg/kg.

[5] = B16F10 melanoma tumour model; conditions: C57BL/6, mouse, in vivo, po
Description: (§3) C57BL/6 mice were inoculated on day 0 with 0.5×10^6 cells in 0.1 ml medium, subcutaneously, in the right flank. […] The substances were administered orally for 10 days (day 2 to day 11). […] Practical example 2 was applied at a dose of 160 or 120 mg/kg.

B16F10 melanoma = B16F10 melanoma tumour model; conditions: for weight loss: oral, day 2 to day 11
Description: as §3

[6] = oral 50 mg/kg, QD × 5, twice daily
[7] = oral 100 mg/kg, QD × 5, twice daily
[8] = oral 100 mg/kg, QD × 7, once daily

Molecule `Cc1sc2c(c1C)C(c1ccc(Cl)cc1)=N[C@@H](CC(=O)OC(C)(C)C)c1nnc(C)n1-2` [Example V1, tert-Butyl[(S)-4-(4-chlorophenyl)-2,3,9-trimethyl-6H-thieno[3,2-f][1,2,4]triazolo[4,3-a][1,4]diazepin-6-yl]acetate, reference compound] has an IC50 (MOLM-13 cells [1]) of 59 nM, an IC50 (VCaP cells) of 37 nM and an IC50 (LNCaP cells) of 63 nM. It also gave an IC50 (MCF-7 cells) of 148 nM, an IC50 (MDA-MB-231 cells) of 86 nM and an IC50 (HeLa-MaTu cells) of 107 nM. For the same molecule, the IC50 (B16F10 cells) was 67 nM, the IC50 (MOLP-8 cells) was 63 nM and the fu (plasma proteins; free fraction of the species investigated (mouse), as used in Table 6) was 1.5%. For the same molecule, the fraction unbound (plasma proteins; mouse, plasma, free (unbound) fraction, equilibrium dialysis, read-out: Protein binding, given as % fu) was 0.015, the Plasma concentration ([2]; 1 h) was 2245.8 ng/mL and the Plasma concentration ([2]; 3 h) was 1220.2 ng/mL. The Plasma concentration ([2]; 5 h) was 587.2 ng/mL, the Plasma concentration ([2]; 7 h) was 321.5 ng/mL and the “AUC(0-tlast),norm,u” value ([2]; single oral dose 60 mg/kg, AUCnorm multiplied by fu) was 0.002 kg·h/L. The “AUC(0-tlast),norm” value ([2]; single oral dose 60 mg/kg, dose-normalized) was 0.12 kg·h/L, the tlast ([2]; single oral dose 60 mg/kg, last time point with measurable plasma concentration) was 7.0 h and the “maximum body weight loss” value ([3]; 50 mg/kg twice daily, on day 6) was 7%. The highest weight loss ([3]; daily dose of 100 mg/kg for 7 days, on the 9th day) was 10%, the MTD ([3]; female, NMRI nude, mouse, in vivo, oral, once daily, read-out: maximum tolerated treatment dose (MTD), single daily treatment) was 100 mg/kg and the “% maximum body weight change (day)” value [3, 6] was −7 (6) %. For the same molecule, the “Remarks (tolerability)” value [3, 6] was “MTD”, the “Drug-induced deaths (day)” value [3, 6] was 0/3 and the “% maximum body weight change (day)” value [3, 7] was −19 (5) %. For the same molecule, the “Remarks (tolerability)” value ([3]; oral 100 mg/kg, QD × 5, twice daily, 100 mg/kg) was “Not tolerated”, the “Drug-induced deaths (day)” value [3, 7] was 2 and the “% maximum body weight change (day)” value [3, 8] was −10 (9) %. The “Remarks (tolerability)” value ([3]; oral 100 mg/kg, QD × 7, once daily, 100 mg/kg) was “tolerated; also recorded: MTD (10% body-”, the “Drug-induced deaths (day)” value [3, 8] was 0/3 and the “activity on tumour growth” value (MOLM-13 cells [4]) was “biologically active”. For the same molecule, the MTD at 10 days [5] was 55 mg/kg, the weight loss (B16F10 melanoma; 120 mg/kg dose) was 2% and the weight loss (B16F10 melanoma; 160 mg/kg dose) was 6%. The deaths (B16F10 melanoma; on day 12, in both dose groups) was “One mouse (out of 12) died”.
